Measured values published in patent US20250127778A1, “CANCER IMMUNOTHERAPY COMPOSITION CONTAINING INTERACTION INHIBITOR OF STING AND TRIM29 AS ACTIVE INGREDIENT” (SPARK BIOPHARMA, INC, priority 2021, published 2025).

Columns and labels:
STING = STING (Homo sapiens, UniProt Q86WV6); assay: Western blotting of STING under co-treatment with MG132, actinomycin D or cycloheximide; format: cell-based
Excerpt: In addition, in order to cross-validate the results of the ELISA experiment, it was confirmed whether the STING increasing effect of the compound of Formula 1 was disappeared when ubiquitinated proteins were prevented from being degraded by treatment with MG132.
In addition, in order to exclude the possibility that the increase in STING expression by the compound of Formula 1 can occur through cellular mechanisms other than ubiquitin-mediated reactions, the transcription inhibitor actinomycin D (ActD) and the ribosome translation inhibitor cycloheximide (CHX) were co-treated with the compound of Formula 1, and whether the STING increase effect was still maintained was confirmed by using the Western blotting method.

[1] = test system: primary tumor and secondary tumor; assay: Primary and secondary tumor model for anticancer immune system construction; format: in vivo, mouse; settings: FIG. 30
Excerpt: It was verified whether, under the treatment of cGAMP and the compound of Formula 1 in combination, in addition to the results of increasing the antigen presentation efficacy that were confirmed in FIGS. 18 to 21, the anticancer immune system was constructed throughout the organism also in the animal model, so that activated cytotoxic T cells were able to remove cancer cells in other locations to which drugs are not injected.

[2] = test system: STING subcytokines (IFN-β, IL-6, IL-15, IL-15Rα); assay: qRT-PCR of STING subcytokine gene expression in Raw264.7 cells; format: cell-based, mouse; settings: time-dependent and concentration-dependent, FIG. 6
Description: In order to confirm whether the oxopiperazine derivatives of Formulas 1 to 6 increase the immune activation efficacy of the STING agonist cGAMP by increasing the amount of STING, the gene expression levels of the STING subcytokine interferon-beta (IFN-β), interleukin-6 (IL-6), interleukin-15 (IL-15), and interleukin-15 receptor alpha (IL-15Rα) were confirmed through quantitative real-time PCR (qRT-PCR) experiments.
Specifically, Raw264.7 cells were seeded in a transparent 12-well plate and cultured for one day. Thereafter, the cells were treated with cGAMP and the oxopiperazine derivatives of Formulas 1 to 6, respectively, and then cultured for six hours. Finally, after the supernatant culture medium of the cells was removed, the remaining supernatant was diluted with PBS (phosphate buffer saline) and removed to prepare qRT-PCR samples. mRNA was extracted from cells by using the RNeasy mini kit of QIAGEN according to the protocol of the manufacturer. After the concentration of RNA was measured by using Nanoview equipment of GE Healthcare, 1 μg RNA was quantified, and complementary DNA (cDNA) was synthesized by using the Accupower cyclescript RT premix dT20 (Bioneer) product according to the protocol of the manufacturer. […] The mixed samples were analyzed by using the StepOne Plus Real-Time PCR system (Applied Biosciences), and the results were plotted by using the Prism 8.0 program.

TRIM29 = target: T1, TRIM29 (Mus musculus, UniProt Q8R2Q0); assay: ITDRF in Raw264.7 cells, TRIM29; format: binding; settings: FIG. 14
T1 construct: endogenous in cells; host or cells: Raw264.7
T1 sequence (Q8R2Q0 1-587): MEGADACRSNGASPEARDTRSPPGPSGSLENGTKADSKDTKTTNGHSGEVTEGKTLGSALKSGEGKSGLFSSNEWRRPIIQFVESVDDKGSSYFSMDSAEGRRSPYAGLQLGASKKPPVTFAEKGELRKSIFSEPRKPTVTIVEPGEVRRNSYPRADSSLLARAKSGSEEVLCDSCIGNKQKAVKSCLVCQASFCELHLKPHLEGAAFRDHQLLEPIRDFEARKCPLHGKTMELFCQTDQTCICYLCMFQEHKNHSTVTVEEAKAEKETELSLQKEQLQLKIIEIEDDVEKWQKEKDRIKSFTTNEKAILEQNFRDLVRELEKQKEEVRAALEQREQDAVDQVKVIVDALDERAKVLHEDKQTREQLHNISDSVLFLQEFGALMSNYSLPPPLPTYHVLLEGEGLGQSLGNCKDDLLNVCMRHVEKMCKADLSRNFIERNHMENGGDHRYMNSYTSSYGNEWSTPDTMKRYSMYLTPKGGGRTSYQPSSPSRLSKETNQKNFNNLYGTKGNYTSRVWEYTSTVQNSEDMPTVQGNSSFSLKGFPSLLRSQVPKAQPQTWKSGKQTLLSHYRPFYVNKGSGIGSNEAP
Excerpt: It was verified whether the oxopiperazine derivative of the present invention was bound to STING among STING and TRIM29 to inhibit interaction thereof, based on the compound of Formula 1, by the cellular thermal shift assay (CETSA) and the isothermal dose response fingerprint (ITDRF) which were major technologies for verifying the interaction between small molecule compounds and target proteins. (D. M. Molinaetal., Science 2013, 341, 84-87.)
To verify the target of the compound of Formula 1 using the CETSA technique, the human A431 cell lines and mouse Raw264.7 cell lines were seeded on a 100-mm or 150-mm culture dish and cultured for one day. […] Afterwards, centrifugation was performed at 20000 g for 20 minutes at 4° C., the supernatant was transferred to a new container, and each concentration was measured by using the Micro BCA™ protein assay kit (ThermoFisher) according to the protocol of the manufacturer. The concentration of each sample was equally adjusted by using the RIPA lysis buffer, the 5× SDS-PAGE loading buffer (Biosesang) was added according to the ratio of the manufacturer, and the resultant was treated at 95° C. for 5 minutes and analyzed by using the Western blotting method described above.

[3] = combination with cGAMP compared with single administration of cGAMP

Sequence of STING (Q86WV6 whole entry H232R, species assumed): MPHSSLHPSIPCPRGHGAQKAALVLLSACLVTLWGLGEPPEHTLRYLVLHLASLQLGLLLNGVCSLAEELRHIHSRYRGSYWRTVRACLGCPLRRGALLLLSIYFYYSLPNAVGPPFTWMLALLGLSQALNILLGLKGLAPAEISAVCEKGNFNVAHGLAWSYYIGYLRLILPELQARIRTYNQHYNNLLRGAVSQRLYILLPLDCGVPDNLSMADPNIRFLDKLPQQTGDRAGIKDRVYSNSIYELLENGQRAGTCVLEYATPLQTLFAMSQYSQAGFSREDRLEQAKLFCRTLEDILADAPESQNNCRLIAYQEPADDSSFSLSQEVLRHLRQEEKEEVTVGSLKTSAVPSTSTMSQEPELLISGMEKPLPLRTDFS

COc1ccc(CC2=CN(c3ccc(C(=O)NC[C@H]4CCCO4)cc3[N+](=O)[O-])[C@H](C(C)C)C(=O)N2Cc2ccc(O)cc2)cc1 [Formula 1, 4-((R)-4-(4-hydroxybenzyl)-2-isopropyl-5-(4-methoxybenzyl)-3-oxo-3,4-dihydropyrazin-1 (2H)-yl)-3-nitro-N-(((R)-tetrahydrofuran-2-yl)methyl)benzamide]
intracellular amount of STING under transcription and translation inhibition (STING; co-treated with actinomycin D (ActD) and cycloheximide (CHX), Western blotting, FIG. 10): still increased the intracellular amount of STING
STING amount under MG132 treatment (STING; co-treated with proteasome inhibitor MG132, Western blotting, FIG. 9): STING was not increased
final tumor mass of primary tumor [1, 3]: reduced
primary tumor growth [1, 3]: inhibited
tumor death in secondary carcinomas ([1]; secondary tumor not directly injected): tumor death also effectively occurred
expression of IL-15 and IL-15Rα [2]: increased
ITDRF effect on TRIM29 (TRIM29): without affecting TRIM29
